Experimental data as given in article PMC9043997, “LEAP2 reduces postprandial glucose excursions and ad libitum food intake in healthy men” (Cell Reports Medicine, 2022).
Where a SMILES comes first, the peptide text is derived from it. Bridges are numbered along the chain shown (N, C = ends).

Assays:
healthy men [1] = assay: Brown adipose tissue thermogenesis by thermal imaging; assay type: in vivo, human; details: iv LEAP2 ~25 pmol/kg/min, thermal imaging camera
Protocol: To assess BAT thermogenesis, temperature of the upper chest was measured from −10 to 0 min, 0 to 15 min, 90 to 105 min and 180 to 195 min using a thermal imaging camera (FLIR A655sc; FLIR Systems, Wilsonville, Oregon, USA). Participants were positioned approximately one meter from the camera in a hospital bed with slight elevation of the head and wearing long-sleeved shirts that exposed the upper chest. The emissivity for measurement of human skin temperatures was set to 0.98 as detailed by the manufacturer. Thermal images were collected at 30-s intervals and analyzed using the FLIR tools program (FLIR Systems, Wilsonville, Oregon, USA). Post hoc, the two supraclavicular regions and a region corresponding to the manubrium of the sternum were marked as regions of interest and the maximum temperature per image was recorded. An average of records from the two supraclavicular regions was used. The manubrium region was used as a negative control reflecting the overall cutaneous heat production.[37], [38], [39] For analysis of BAT thermogenesis, manubrium-corrected temperature was calculated as the average of the supraclavicular skin temperatures minus the manubrium skin temperature. […] Average room temperature was 22.5 ± 0.06 °C adjusted by two air conditioners (Electrolux EXP35U538CW; AB Electrolux, Stockholm, Sweden) and recorded four times during each experimental day. […]

healthy men [2] = assay: Ad libitum meal test at the end of the infusion period; assay type: in vivo, human; details: healthy men n = 20, iv LEAP2 ~25 pmol/kg/min
Protocol: The infusion was terminated when participants had finished eating.
Unless otherwise stated, results are presented as mean ± SEM. Baseline values were calculated as a mean of timepoints −35, −10 and 0 min or, when only available −10 and 0 min. Baseline values for the postprandial period were calculated as a mean of timepoint 60 min. Calculations of AUC were based on the trapezoidal rule. AUC values are reported for the period 0 to 255 min. To assess the fasting and postprandial periods separately, AUC values are reported for the periods 0 to 60 min and 60 to 255 min, respectively. Student’s paired t test was used to test for differences in baseline, peak, time to peak, AUC and mean values and ad libitum food intake in men. Indirect calorimetry and thermal imaging data were fitted to a repeated-measures mixed effects model with the intervention and timepoints as independent variables with interaction and Geisser-Greenhouse correction. Šidák’s post hoc test was used to compare LEAP2 to placebo for each timepoint. For analysis of endogenous LEAP2 concentrations in response to a liquid mixed meal test, postprandial data during placebo infusion were fitted to a repeated-measures mixed effects model with time as a fixed effect and the individual participant as a random effect with Geisser-Greenhouse correction. Dunnett’s post hoc test was used to compare endogenous LEAP2 concentrations at each timepoint (75 to 255 min) to the postprandial baseline. Mouse plasma glucose, food intake and insulin data were analyzed by a repeated-measures two-way ANOVA with Šidák’s post hoc test. Statistical analyses were carried out using GraphPad Prism v9.0.0 and v9.1.1 (GraphPad Software, San Diego, California). A two-sided p value < 0.05 was considered statistically significant. The population size calculation was based on data from a previous study investigating the reproducibility of an ad libitum meal in healthy men.[41] Eighteen participants were needed to detect a difference of minimum 500 kJ in ad libitum food intake with a with-in subject difference of 739 kJ, a power of 80% and the above-mentioned significance level. To ensure sufficient power, 20 participants were included.

With `CC[C@H](C)[C@@H]1NC(=O)[C@@H]2CSSC[C@@H](C(=O)N[C@@H](CO)C(=O)N[C@@H](CC(C)C)C(=O)N[C@@H](CO)C(=O)N[C@H](C(=O)N[C@@H](C)C(=O)N[C@@H](CCC(N)=O)C(=O)N[C@@H](CCC(=O)O)C(=O)O)C(C)C)NC(=O)[C@H](CCCNC(=N)N)NC(=O)[C@H](CCCNC(=N)N)NC(=O)[C@H](CCCCN)NC(=O)[C@H](CCCNC(=N)N)NC(=O)[C@H](CSSC[C@H](NC(=O)[C@H](CO)NC(=O)[C@H](C)NC(=O)CNC(=O)[C@@H](NC(=O)[C@@H]3CCCN3C(=O)[C@H](CCCNC(=N)N)NC(=O)[C@H](CC(C)C)NC(=O)[C@H](CO)NC(=O)[C@@H](NC(=O)CNC(=O)[C@H](CCCNC(=N)N)NC(=O)[C@H](Cc3c[nH]c4ccccc34)NC(=O)[C@H](Cc3ccccc3)NC(=O)[C@@H]3CCCN3C(=O)[C@@H](NC(=O)[C@@H](N)CCSC)[C@@H](C)O)C(C)C)[C@@H](C)CC)C(=O)N[C@@H](CCCNC(=N)N)C(=O)N[C@@H](CC(=O)O)C(=O)N[C@@H](CC(=O)O)C(=O)N[C@@H](CO)C(=O)N[C@@H](CCC(=O)O)C(=O)N2)NC(=O)[C@H](CC(C)C)NC(=O)[C@H](CCCNC(=N)N)NC(=O)[C@H]([C@@H](C)O)NC1=O` [LEAP2, liver-expressed antimicrobial peptide 2] (H-MTPFWRGVSLRPIGASCRDDSECITRLCRKRRCSLSVAQE-OH; disulfide 17-28, 23-33 (inferred); N-terminus and C-terminus assumed) the “BAT thermogenesis (manubrium-corrected supraclavicular skin temperature), LEAP2 vs placebo” value (healthy men [1]) was “no differences”, the “mean difference in ad libitum food intake per kg body weight (placebo vs LEAP2)” value (healthy men [2]; 95% CI, p = 0.0029) was 5.4 kJ/kg and the “mean difference in total ad libitum food intake (placebo vs LEAP2)” value (healthy men [2]; 95% CI, p = 0.0041) was 432 kJ. The “mean difference in duration of the ad libitum meal (placebo vs LEAP2)” value (healthy men [2]; 95% CI, p = 0.0303) was 1.5 min and the “reduction in energy intake during ad libitum meal compared with placebo” value (healthy men [2]; pasta Bolognese served 260 min after start of infusion) was ~12%.
